Read-outs that look alike come from different tables or passages of the source.
How the values were obtained:
[1] = test system: Adenovirus type 5; settings: examples using ginseng (Table 1); lung tissue of K18-ACE2 TG mice, oral, three days after infection; non-treated control = 100
[2] = test system: Adenovirus type 5; assay type: cell-based; settings: examples using ginseng (Table 1); Vero-E6 cells, 100 μg/ml pretreatment 2 h, 50 pfu/well, 72 h; non-treated control = 100

Compound | Relative virus titer Adenovirus type 5 [1] | Relative virus titer Adenovirus type 5 [2]
C[C@]12C=CC(=O)C=C1CC[C@@H]1[C@@H]2[C@@H](O)C[C@@]2(C)[C@H]1CC[C@]2(O)C(=O)CO [Comparative Example 6, Prednisolone] | 102 ± 1.9 | 102 ± 1.9
C[C@@H]1C[C@H]2[C@@H]3CCC4=CC(=O)C=C[C@]4(C)[C@@]3(F)[C@@H](O)C[C@]2(C)[C@@]1(O)C(=O)CO [Comparative Example 4, Dexamethasone] | 102 ± 1.9 | 102 ± 1.9
C[C@]12CCC(=O)C=C1CC[C@@H]1[C@@H]2[C@@H](O)C[C@@]2(C)[C@H]1CC[C@]2(O)C(=O)CO [Comparative Example 5, Hydrocortisone] | 101 ± 1.9 | 103 ± 1.9
C[C@]12C=CC(=O)C=C1CC[C@H]1[C@@H]3C[C@@H](O)[C@](O)(C(=O)CO)[C@@]3(C)C[C@H](O)[C@@]12F [Comparative Example 7, Triamcinolone] | 101 ± 1.9 | 102 ± 1.9
